Laboratory results: paper PMC9714921 (PLOS Pathogens, 2022)
Several values for one entry are separate records, joined by “and”; a condition that tells them apart may be missing. Equal entries are not always repeated. Entries after “also recorded” stand apart in the source; their conditions may differ. Where two headings read alike, the source gives them in different places.

Assays:
T. suis N-AChR = conditions: read-out: EC50 μM ACh; accessory protein Ric-3; ref [34]; cited from earlier work
Bma-ACR-16 = assay type: cell-based, Brugia malayi
Experimental: cRNA for oocyte injection was prepared with the mMESSAGE mMACHINE T7 kit following manufacturers protocol (Ambion, USA). Concentration was determined using a Nanodrop spectrophotometer. Desired subunit combinations with associated accessory proteins were mixed and diluted with nuclease-free water to a final concentration of 250 ng/uL for each construct.
Adult female X. laevis oocyte extraction was performed in accordance with the McGill University Animal Use Protocol 2015–7758 following standard protocol. Briefly, frog ovary lobes were placed in a Ca^2+-free OR2 solution (82 mM NaCl, 2 mM KCl, 1 mM MgCl2, 5 mM HEPES buffer, pH 7.3) and manually divided into clusters of <10 oocytes with thin tweezers followed by a 90-minute incubation in 10 mg/mL collagenase type II (Sigma-Aldrich, USA). Oocytes were washed in Ca^2+-free OR2 and placed ND96 solution (NaCl 96 mM, KCl 2 mM, CaCl2 1.8 mM, MgCl2 1 mM and HEPES 5 mM, pH 7.3) supplemented with sodium pyruvate 2.5 mM [86] and incubated at 18°C until cRNA injection. Oocytes were injected with 50 nL (12.5 ng of each injected gene) of the desired cRNA subunit and accessory protein combination mix with the NanojectII (Drummond Scientific, USA). Following injection, oocytes were incubated in ND96 buffer at 18°C until electrophysiology. All electrophysiology was conducted two days post-injection, except for the expression analysis assay in which oocytes were measured every day after injection for three consecutive days.
All drugs were dissolved in recording solution (NaCl 100 mM, KCl 2.5 mM, CaCl2 1 mM, HEPES 5 mM, pH 7.3) to a stock concentration of 10 mM and diluted to their final recording concentrations. Oxantel and bephenium were first dissolved in DMSO to ensure a final recording concentration contained less than 0.1% DMSO. For agonist profiling, all drugs were diluted to a concentration of 100 μM.
Oocytes were placed individually in an RC3Z chamber (Harvard Apparatus, USA) submerged in recording solution (NaCl 100 mM, KCl 2.5 mM, CaCl2 1 mM, HEPES 5 mM, pH 7.3). The RC3Z chamber was connected to a perfusion system containing recording solution and ligand solutions. Pulled glass capillaries (World Precision Instruments, USA) were filled with 3M KCl and the tips clipped and checked for appropriate resistance (between 0.5 and 5 MΩ). A 3M KCl agar bridge grounded the oocyte bath chamber. Measurements were made using an Axon Axoclamp 900A amplifier with Digidata1550M. […] Ligand solutions were applied to the oocytes with an approximate flow rate of 1.2 m/s and current responses measured. Oocytes were exposed to the ligand solution until a distinct current peak was observed followed by a wash with the recording solution until current returned to baseline for a minimum of 10 seconds until the next ligand exposure. For BAPTA-AM exposed oocytes, oocytes were incubated in 100 μM BAPTA-AM for four hours prior to electrophysiology recording. Data was analyzed using Clampex 9.2 (Axon Instruments, USA) and statistical analysis and graphs produced in Prism (GraphPad version 9.1). T-tests were used to compare responses with error bars representing standard error. For concentration-response curves, individual oocyte current response to the different ligand concentrations were normalized to the response obtained with 300 μM. Data was fit using the Graphpad “log(agonist) vs normalized response–variable slope” equation, with 95% confidence intervals being reported. […] For examples of oocyte responses, recordings were filtered in Clampfit using the lowband pass at 40 Hz cutoff.

## CC(=O)OCC[N+](C)(C)C [ACh, acetylcholine]
T. suis N-AChR
  EC50: 14.5 ± 1.03 µM
Bma-ACR-16; No accessory protein
  current response to 100 μM acetylcholine: 0 ± 0 (n=12) nA
Bma-ACR-16; co-injected: Bma-ric-3 (reference condition)
  current response to 100 μM acetylcholine: no responses and 0 ± 0 (n=8) nA
Bma-ACR-16; co-injected: Bma-ric-3 + Bma-eat-18
  current response to 100 μM acetylcholine: 0± 0 (n=10) nA
Bma-ACR-16; co-injected: Bma-ric-3 + Bma-emc-6 + Cel-nra-2 + Cel-nra-4
  current response to 100 μM acetylcholine: 11 ± 9 nA
Bma-ACR-16; co-injected: Bma-ric-3 + Bma-emc-6 + Cel-nra-2 + Cel-nra-4 + Bma-eat-18
  current response to 100 μM acetylcholine: 2 ± 1 nA
Bma-ACR-16; co-injected: Bma-ric-3 + Bma-emc-6 + Cel-nra-2 + Cel-nra-4 + Bma-eat-18 + Bma-unc-50 + Bma-unc-74
  current response to 100 μM acetylcholine: 0 ± 0 nA
Bma-ACR-16; co-injected: Bma-ric-3 + Bma-emc-6 + Cel-nra-2 + Cel-nra-4 + Bma-eat-18 + Bma-unc-50 + Bma-unc-74, listed as acetylcholine
  current response to 100 μM acetylcholine: 0 ± 0 (n=11) nA
Bma-ACR-16; co-injected: Bma-ric-3 + Bma-emc-6 + Cel-nra-2 + Cel-nra-4 + Bma-eat-18, listed as acetylcholine
  current response to 100 μM acetylcholine: 2 ± 1 (n=12) ns nA
Bma-ACR-16; co-injected: Bma-ric-3 + Bma-emc-6 + Cel-nra-2 + Cel-nra-4, listed as acetylcholine
  current response to 100 μM acetylcholine: 11 ± 9 (n=11) ns nA
Bma-ACR-16; co-injected: Bma-ric-3 + Bma-molo-1
  current response to 100 μM acetylcholine: 0 ± 0 (n=16) nA
Bma-ACR-16; co-injected: Bma-ric-3 + Bma-unc-50 + Bma-unc-74
  current response to 100 μM acetylcholine: 0 ± 0 (n=5) nA
Bma-ACR-16; co-injected: Bma-ric-3 + Bma-unc-50 + Bma-unc-74 + Bma-eat-18
  current response to 100 μM acetylcholine: 0 ± 0 (n=13) nA
Bma-ACR-16; co-injected: Bma-ric-3 + Cel-emc-6
  current response to 100 μM acetylcholine: 17 ± 4 nA and 17 ± 4 (n=13) nA
Bma-ACR-16; co-injected: Bma-ric-3 + Cel-nra-2
  current response to 100 μM acetylcholine: 33 ± 9 nA
Bma-ACR-16; co-injected: Bma-ric-3 + Cel-nra-2 + Cel-nra-4, listed as acetylcholine
  current response to 100 μM acetylcholine: 4 ± 2 nA and 4 ± 2 (n=12) nA
Bma-ACR-16; co-injected: Bma-ric-3 + Cel-nra-2, listed as acetylcholine
  current response to 100 μM acetylcholine: 33 ± 9 (n=14) nA
Bma-ACR-16; co-injected: Bma-ric-3 + Cel-nra-4
  current response to 100 μM acetylcholine: 31 ±13 nA
Bma-ACR-16; co-injected: Bma-ric-3 + Cel-nra-4, listed as acetylcholine
  current response to 100 μM acetylcholine: 31 ± 13 (n=12) ns nA
Bma-ACR-16; co-injected: Hco-ric-3
  current response to 100 μM acetylcholine: no measurable current; also recorded: no responses
Bma-ACR-16; co-injected: Hco-ric-3, listed as acetylcholine
  current response to 100 μM acetylcholine: 0 ± 0 nA and 0 ± 0 (n=12) nA
